The record followed here is patent publication US8377974B2 (Millennium Pharmaceuticals, Inc., priority 2004, dated 2013).

Molecules are shown by their SMILES. Bounds are passed on as bounds.

This test deals with T1, human plasma protein factor Xa (Homo sapiens, UniProt P00742).
T1 construct: measure proteolytic activity of the enzyme (factor Xa); purchased Haematologic Technologies (Essex Junction, Vt.); host or cells: human plasma
T1 sequence (P00742 235-488 limits assumed): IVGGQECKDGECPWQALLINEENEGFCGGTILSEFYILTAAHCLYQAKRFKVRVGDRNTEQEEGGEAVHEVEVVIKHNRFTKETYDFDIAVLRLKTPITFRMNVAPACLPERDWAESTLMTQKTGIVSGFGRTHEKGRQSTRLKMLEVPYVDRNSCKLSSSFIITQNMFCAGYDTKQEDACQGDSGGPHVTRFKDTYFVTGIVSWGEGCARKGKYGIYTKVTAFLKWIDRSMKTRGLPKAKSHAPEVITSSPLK
T1 sequence (P00742 41-179 partner limits assumed): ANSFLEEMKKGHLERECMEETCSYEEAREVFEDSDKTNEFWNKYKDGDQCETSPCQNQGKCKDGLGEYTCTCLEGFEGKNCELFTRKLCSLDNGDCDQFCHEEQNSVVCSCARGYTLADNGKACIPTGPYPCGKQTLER
The experiment in a line: Factor Xa IC50 determination: cleavage of paranitroanilide substrate S-2765 in 96-well plates. It is filed as biochemical. The settings on record: fXa 1 nM, S-2765 100 μM, Tris buffered saline pH 7.4, room temperature. Summed up:
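Initial rates of S-2765 (100 μM final) cleavage, read at 405 nm for 2 min, fitted with a four-parameter equation to give IC50. Enzyme: 1 nM human plasma fXa, 5 min room-temperature preincubation with inhibitor (0.01 nM–10 μM) in 20 mM Tris, 150 mM NaCl, 5 mM CaCl2, 0.1% BSA, 5% DMSO, pH 7.4; duplicates.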
With `CN(C)CCCN(C)c1ccc(C2=NOC(CNC(=O)c3ccc(Cl)s3)C2)cc1` (centres unmarked) [Example 239, 5-Chloro-thiophene-2-carboxylic acid (3-{4-[(3-dimethylamino-propyl)-methyl-amino]-phenyl}-4,5-dihydro-isoxazol-5-ylmethyl)-amide], the IC50 is ≤ 100 nM.

As for `O=C(NCC1CC(c2ccc(N3CCCC3=O)cc2)=NO1)c1ccc(Cl)s1` (centres unmarked) [Example 240, 5-Chloro-thiophene-2-carboxylic acid {3-[4-(2-oxo-pyrrolidin-1-yl)-phenyl]-4,5-dihydro-isoxazol-5-ylmethyl}-amide], the IC50 was ≤ 100 nM.

`O=C(NCC1CC(c2ccc(N3CCCCC3=O)cc2)=NO1)c1ccc(Cl)s1` (centres unmarked) [Example 241, 5-Chloro-thiophene-2-carboxylic acid {3-[4-(2-oxo-piperidin-1-yl)-phenyl]-4,5-dihydro-isoxazol-5-ylmethyl}-amide] returned an IC50 of 100 to 500 nM.

As for `O=C(NCC1CC(c2ccc(N3CCN(C(=O)OCc4ccccc4)CC3=O)cc2)=NO1)c1ccc(Cl)s1` (centres unmarked) [Example 242, 4-[4-(5-{[(5-Chloro-thiophene-2-carbonyl)-amino]-methyl}-4,5-dihydro-isoxazol-3-yl)-phenyl]-3-oxo-piperazine-1-carboxylic acid benzyl ester], the IC50 was ≤ 100 nM.

As for `O=C(NCC1CC(c2ccc(N3CCOCC3=O)cc2)=NO1)c1ccc(Cl)s1` (centres unmarked) [Example 243, 5-Chloro-thiophene-2-carboxylic acid {3-[4-(3-oxo-morpholin-4-yl)-phenyl]-4,5-dihydro-isoxazol-5-ylmethyl}-amide], the IC50 is ≤ 100 nM.

As to `O=C(NCC1CC(c2ccc(N3CCSCC3=O)cc2)=NO1)c1ccc(Cl)s1` (centres unmarked) [Example 244, 5-Chloro-thiophene-2-carboxylic acid {3-[4-(3-oxo-thiomorpholin-4-yl)-phenyl]-4,5-dihydro-isoxazol-5-ylmethyl}-amide], the IC50 lay within 100 to 500 nM.

For `CN1CCN(c2ccc(C3=NOC(CNC(=O)c4ccc(Cl)s4)C3)cc2)C1=O` (centres unmarked) [Example 245, 5-Chloro-thiophene-2-carboxylic acid {3-[4-(3-methyl-2-oxo-imidazolidin-1-yl)-phenyl]-4,5-dihydro-isoxazol-5-ylmethyl}-amide], the IC50 is ≤ 100 nM.

In the case of `O=C(NCC1CC(c2ccc(N3CCOCCC3=O)cc2)=NO1)c1ccc(Cl)s1` (centres unmarked) [Example 246, 5-Chloro-thiophene-2-carboxylic acid {3-[4-(5-oxo-[1,4]oxazepan-4-yl)-phenyl]-4,5-dihydro-isoxazol-5-ylmethyl}-amide], the IC50 was ≤ 100 nM.

For `O=C(NCC1CC(c2ccc(Nc3ccncc3)cc2F)=NO1)c1ccc(Cl)s1` (centres unmarked) [Example 247, 5-Chloro-thiophene-2-carboxylic acid {3-[2-fluoro-4-(pyridin-4-ylamino)-phenyl]-4,5-dihydro-isoxazol-5-ylmethyl}-amide], the half-inhibitory concentration (IC50) is ≤ 100 nM.

As to `CN1CCCN(c2ccc(C3=NOC(CNC(=O)c4ccc(Cl)s4)C3)c(F)c2)CC1` (centres unmarked) [Example 248, 5-Chloro-thiophene-2-carboxylic acid {3-[2-fluoro-4-(4-methyl-[1,4]diazepan-1-yl)-phenyl]-4,5-dihydro-isoxazol-5-ylmethyl}-amide], the half-inhibitory concentration (IC50) was ≤ 100 nM.

With `O=C(NCC1CC(c2ccc(N3CCOCCC3=O)cc2F)=NO1)c1ccc(Cl)s1` (centres unmarked) [Example 249, 5-Chloro-thiophene-2-carboxylic acid {3-[2-fluoro-4-(5-oxo-[1,4]oxazepan-4-yl)-phenyl]-4,5-dihydro-isoxazol-5-ylmethyl}-amide], the IC50 was ≥ 500 nM.

Take `O=C(NCc1cc(-c2ccc(Nc3ccccc3)cc2)no1)c1ccc(Cl)s1` [Example 250, 5-Chloro-thiophene-2-carboxylic acid [3-(4-phenylamino-phenyl)-isoxazol-5-ylmethyl]-amide]: the IC50 is ≥ 500 nM.

Regarding `COc1ccc(Nc2ccc(-c3cc(CNC(=O)c4ccc(Cl)s4)on3)cc2)cc1` [Example 251, 5-Chloro-thiophene-2-carboxylic acid {3-[4-(4-methoxy-phenylamino)-phenyl]-isoxazol-5-ylmethyl}-amide], the IC50 was ≥ 500 nM.

On to `O=C(NCc1cc(-c2ccc(Nc3ccccn3)cc2)no1)c1ccc(Cl)s1` [Example 252, 5-Chloro-thiophene-2-carboxylic acid {3-[4-(pyridin-2-ylamino)-phenyl]-isoxazol-5-ylmethyl}-amide], for which the IC50 is ≥ 500 nM.

`O=C(NCc1cc(-c2ccc(Nc3cccnc3)cc2)no1)c1ccc(Cl)s1` [Example 253, 5-Chloro-thiophene-2-carboxylic acid {3-[4-(pyridin-3-ylamino)-phenyl]-isoxazol-5-ylmethyl}-amide]: the IC50 was ≤ 100 nM.

Consider `O=C(NCc1cc(-c2ccc(Nc3ccncc3)cc2)no1)c1ccc(Cl)s1` [Example 254, 5-Chloro-thiophene-2-carboxylic acid {3-[4-(pyridin-4-ylamino)-phenyl]-isoxazol-5-ylmethyl}-amide], for which the IC50 is ≤ 100 nM.

Take `CN(c1ccncc1)c1ccc(-c2cc(CNC(=O)c3ccc(Cl)s3)on2)cc1` [Example 255, 5-Chloro-thiophene-2-carboxylic acid {3-[4-(methyl-pyridin-4-yl-amino)-phenyl]-isoxazol-5-ylmethyl}-amide]: the IC50 was ≥ 500 nM.

Consider `O=C(NCc1cc(-c2ccc(N3CCCC3)cc2)no1)c1ccc(Cl)s1` [Example 256, 5-Chloro-thiophene-2-carboxylic acid [3-(4-pyrrolidin-1-yl-phenyl)-isoxazol-5-ylmethyl]-amide], for which the IC50 is ≥ 500 nM.

Regarding `O=C(NCc1cc(-c2ccc(N3CCOCC3)cc2)no1)c1ccc(Cl)s1` [Example 257, 5-Chloro-thiophene-2-carboxylic acid [3-(4-morpholin-4-yl-phenyl)-isoxazol-5-ylmethyl]-amide], the IC50 is ≥ 500 nM.

In the case of `O=C(NCc1cc(-c2ccc(NCc3ccccc3)cc2)no1)c1ccc(Cl)s1` [Example 258, 5-Chloro-thiophene-2-carboxylic acid [3-(4-benzylamino-phenyl)-isoxazol-5-ylmethyl]-amide], the IC50 is ≥ 500 nM.

For `CN1CCC(Nc2ccc(-c3cc(CNC(=O)c4ccc(Cl)s4)on3)cc2)CC1` [Example 259, 5-Chloro-thiophene-2-carboxylic acid {3-[4-(1-methyl-piperidin-4-ylamino)-phenyl]-isoxazol-5-ylmethyl}-amide], the IC50 was ≥ 500 nM.

Turning to `COC(=O)c1ccccc1Nc1ccc(C2=NOC(CNC(=O)c3ccc(Cl)s3)C2)cc1` (centres unmarked) [Example 260, 2-[4-(5-{[(5-Chloro-thiophene-2-carbonyl)-amino]-methyl}-4,5-dihydro-isoxazol-3-yl)-phenylamino]-benzoic acid methyl ester], the IC50 is ≥ 500 nM.

Regarding `COC(=O)c1cccc(Nc2ccc(C3=NOC(CNC(=O)c4ccc(Cl)s4)C3)cc2)c1` (centres unmarked) [Example 261, 3-[4-(5-{[(5-Chloro-thiophene-2-carbonyl)-amino]-methyl}-4,5-dihydro-isoxazol-3-yl)-phenylamino]-benzoic acid methyl ester], the IC50 was ≥ 500 nM.

In the case of `COC(=O)c1ccc(Nc2ccc(C3=NOC(CNC(=O)c4ccc(Cl)s4)C3)cc2)cc1` (centres unmarked) [Example 262, 4-[4-(5-{[(5-Chloro-thiophene-2-carbonyl)-amino]-methyl}-4,5-dihydro-isoxazol-3-yl)-phenylamino]-benzoic acid methyl ester], the IC50 is ≥ 500 nM.

Regarding `O=C(NCC1CC(c2cccc(-c3ccccc3CN3CCCC3)c2)=NO1)c1ccc(Cl)s1` (centres unmarked) [Example 263, 5-Chloro-thiophene-2-carboxylic acid [3-(2′-pyrrolidin-1-ylmethyl-biphenyl-3-yl)-4,5-dihydro-isoxazol-5-ylmethyl]-amide], the IC50 is ≥ 500 nM.

In the case of `CN(C)Cc1cccc(-c2cccc(C3=NOC(CNC(=O)c4ccc(Cl)s4)C3)c2)c1` (centres unmarked) [Example 264, 5-Chloro-thiophene-2-carboxylic acid [3-(3′-dimethylaminomethyl-biphenyl-3-yl)-4,5-dihydro-isoxazol-5-ylmethyl]-amide], the IC50 was ≥ 500 nM.

Regarding `O=C(NCC1CC(c2cccc(-c3cccc(CN4CCCC4)c3)c2)=NO1)c1ccc(Cl)s1` (centres unmarked) [Example 265, 5-Chloro-thiophene-2-carboxylic acid [3-(3′-pyrrolidin-1-ylmethyl-biphenyl-3-yl)-4,5-dihydro-isoxazol-5-ylmethyl]-amide], the IC50 was ≥ 500 nM.

Regarding `CN(C)Cc1ccc(-c2cccc(C3=NOC(CNC(=O)c4ccc(Cl)s4)C3)c2)cc1` (centres unmarked) [Example 266, 5-Chloro-thiophene-2-carboxylic acid [3-(4′-dimethylaminomethyl-biphenyl-3-yl)-4,5-dihydro-isoxazol-5-ylmethyl]-amide], the half-inhibitory concentration (IC50) is ≥ 500 nM.

Consider `O=C(NCC1CC(c2cccc(-c3ccc(CN4CCCC4)cc3)c2)=NO1)c1ccc(Cl)s1` (centres unmarked) [Example 267, 5-Chloro-thiophene-2-carboxylic acid [3-(4′-pyrrolidin-1-ylmethyl-biphenyl-3-yl)-4,5-dihydro-isoxazol-5-ylmethyl]-amide], for which the IC50 was ≥ 500 nM.

Consider `CN(C)Cc1ccccc1-c1cccc(-c2cc(CNC(=O)c3ccc(Cl)s3)on2)c1` [Example 268, 5-Chloro-thiophene-2-carboxylic acid [3-(T-dimethylaminomethyl-biphenyl-3-yl)-isoxazol-5-ylmethyl]-amide], for which the half-inhibitory concentration (IC50) was ≥ 500 nM.

In the case of `O=C(NCc1cc(-c2cccc(-c3ccccc3CN3CCCC3)c2)no1)c1ccc(Cl)s1` [Example 269, 5-Chloro-thiophene-2-carboxylic acid [3-(2′-pyrrolidin-1-ylmethyl-biphenyl-3-yl)-isoxazol-5-ylmethyl]-amide], the IC50 is ≤ 100 nM.

Regarding `CN(C)Cc1cccc(-c2cccc(-c3cc(CNC(=O)c4ccc(Cl)s4)on3)c2)c1` [Example 270, 5-Chloro-thiophene-2-carboxylic acid [3-(3′-dimethylaminomethyl-biphenyl-3-yl)-isoxazol-5-ylmethyl]-amide], the IC50 is ≥ 500 nM.

As a reminder, the IC50 is the midpoint of a concentration-inhibition curve.
